Results taken from patent publication US9573895B2, “Tetracycline compounds” (Tetraphase Pharmaceuticals, Inc., priority 2012, dated 2017).
Converted amounts (≈) assume the structure as drawn.

Test system: Burkholderia cenocepacia BC240 (Cystic fibrosis isolate, MDR)
Assay: MIC assay BC240
Assay type: cell-based

Row | Compound | MIC BC240 (Table 5) [µg/mL] | MIC BC240 (Table 6) [µg/mL] | MIC BC240 (Table 7) [µg/mL] | MIC BC240 (control compounds, numeric) [µg/mL]
1 | CN(C)[C@@H]1C(O)=C(C(N)=O)C(=O)[C@@]2(O)C(O)=C3C(=O)c4c(O)cccc4C[C@H]3C[C@@H]12 [Sancycline, sancycline] | 4 (≈ 9.65 µM) | 4 (≈ 9.65 µM) | 4 (≈ 9.65 µM) | 4 (≈ 9.65 µM)
2 | CN(C)c1cc(NC(=O)CNC(C)(C)C)c(O)c2c1C[C@H]1C[C@H]3[C@H](N(C)C)C(O)=C(C(N)=O)C(=O)[C@@]3(O)C(O)=C1C2=O [Tigecycline, tigecycline] | 16 (≈ 27.3 µM) | 16 (≈ 27.3 µM) | 16 (≈ 27.3 µM) | 16 (≈ 27.3 µM)
